In brackets after ≈: the same amount, converted by molar mass. Read-outs that look alike come from different tables or passages of the source.
Tests used:
[1] = system: Staphylococcus aureus FDA 209P; test: Minimal inhibitory concentration (agar); format: cell-based; settings: FDA209P, 48 h, nutrient agar, pH 7.0, 2 days, 37° C.
[2] = system: Bacillus subtilis PCI 219; test: Minimal inhibitory concentration (agar); format: cell-based; settings: pH 7.0, 2 days, 37° C.
Description: (§1) Medium N nutrient agar (pH 7.0, 2 days, 37° C.)
(§2) MIC Minimal inhibitory concentration
(§3) N nutrient agar (pH 7.0, 2 days, 37° C.)

Sarcina lutea PCI 1001 = test: Minimal inhibitory concentration (agar); format: cell-based; settings: pH 7.0, 2 days, 37° C.
Description: as §1, §2, §3

[3] = system: Staphylococcus aureus FDA 209P (JC-1); test: Minimal inhibitory concentration (agar); format: cell-based; settings: FDA209P, 48 h, nutrient agar, pH 7.0, 2 days, 37° C.
Description: as §1, §2, §3

Candida albicans = test: Minimal inhibitory concentration (agar); format: cell-based; settings: pH 6.4, 4 days, 27° C.
Description: (§4) P potato agar (pH 6.4, 4 days, 27° C.)
as §2
(§5) Minimal inhibitory concentration was assayed by agar dilution method
(§6) (potato agar, pH 6.4, 27° C., 4 days).

Trichophyton rubrum = test: Minimal inhibitory concentration (agar); format: cell-based; settings: pH 6.4, 4 days, 27° C.
Description: as §4, §2, §5, §6

Trichophyton schoenleini = test: Minimal inhibitory concentration (agar); format: cell-based; settings: pH 6.4, 4 days, 27° C.
Description: as §4, §2, §5, §6

Saccharomyces sake = test: Minimal inhibitory concentration (agar); format: cell-based; settings: Saccharomyces, 96 h, pH 6.4, 4 days, 27° C., read-out: MIC
[4] = system: Aspergillus niger ATCC 6275; test: Minimal inhibitory concentration (agar); format: cell-based; settings: ATCC6275, 96 h, pH 6.4, 4 days, 27° C.
Microsporum gypseum 704 = test: Minimal inhibitory concentration (agar); format: cell-based; settings: Nannizzia gypsea, 704, 96 h; potato agar, pH 6.4, 4 days, 27° C.
Trichophyton asteroides = test: Minimal inhibitory concentration (agar); format: cell-based; settings: pH 6.4, 4 days, 27° C.
Trichophyton ferrugineum = test: Minimal inhibitory concentration (agar); format: cell-based; settings: pH 6.4, 4 days, 27° C.
[5] = system: Trichophyton interdigitale; test: Minimal inhibitory concentration (agar); format: cell-based; settings: Trichophyton interdigitale, 96 h; potato agar, pH 6.4, 4 days, 27° C.; read-out: MIC
Trichophyton roseum = test: Minimal inhibitory concentration (agar); format: cell-based; settings: pH 6.4, 4 days, 27° C.
[6] = system: Mycobacterium smegmatis ATCC 607; test: Minimal inhibitory concentration (agar); format: cell-based; settings: Mycolicibacterium smegmatis, ATCC607, 48 h; nutrient agar, pH 7.0, 2 days, 37° C.
[7] = system: Aspergillus fumigatus IAM 2162; test: Minimal inhibitory concentration (agar); format: cell-based; settings: IAM2162, 96 h, potato agar, pH 6.4, 4 days, 27° C.
Description: | P potato agar (pH 6.4, 4 days, 27° C.)

[8] = system: Aerobacter aerogenes IAM 1183; test: Minimal inhibitory concentration (agar); format: cell-based; settings: Klebsiella aerogenes, IAM1183, 48 h; nutrient agar, pH 7.0, 2 days, 37° C.
Description: as §3

Bacillus cereus T = test: Minimal inhibitory concentration (agar); format: cell-based; settings: 48 h, nutrient agar, pH 7.0, 2 days, 37° C.
Description: as §3

[9] = system: Corynebacterium paurometabolum; test: Minimal inhibitory concentration (agar); format: cell-based; settings: Tsukamurella paurometabola, 48 h; nutrient agar, pH 7.0, 2 days, 37° C.
Description: as §3

Proteus mirabilis = test: Minimal inhibitory concentration (agar); format: cell-based; settings: 48 h, nutrient agar, pH 7.0, 2 days, 37° C.
Description: as §3

[10] = system: Proteus vulgaris IFO 3167; test: Minimal inhibitory concentration (agar); format: cell-based; settings: IFO3167, 48 h, nutrient agar, pH 7.0, 2 days, 37° C.
Description: as §3

[11] = system: Pseudomonas aeruginosa P-3; test: Minimal inhibitory concentration (agar); format: cell-based; settings: P3, 48 h, nutrient agar, pH 7.0, 2 days, 37° C.
Description: as §3

Shigella sonnei E 33 = test: Minimal inhibitory concentration (agar); format: cell-based; settings: E33, 48 h, nutrient agar, pH 7.0, 2 days, 37° C.
Description: as §3

[12] = system: Staphylococcus aureus FS 1227 (PC-R); test: Minimal inhibitory concentration (agar); format: cell-based; settings: 48 h, nutrient agar, pH 7.0, 2 days, 37° C., penicillin resistant strain
Description: as §3

[13] = system: Staphylococcus aureus KB 61 (R-TC, EM); test: Minimal inhibitory concentration (agar); format: cell-based; settings: 48 h, nutrient agar, pH 7.0, 2 days, 37° C., tetracyclin, erythromycin resistant strain, read-out: MIC
Description: as §3

[14] = system: Staphylococcus aureus KB 64 (R-TC, EM); test: Minimal inhibitory concentration (agar); format: cell-based; settings: 48 h, nutrient agar, pH 7.0, 2 days, 37° C., tetracyclin, erythromycin resistant strain, read-out: MIC
Description: as §3

[15] = system: Acholeplasma laidlawii (A); test: Antimycoplasma activity, inhibition zone; format: cell-based; settings: Hokken PPLO agar, pH 7.8, 8 days, 37° C.
Description: H Hokken PPLO agar (pH 7.8, 8 days, 37° C.)
Nanaomycin A and derivatives thereof according to the present invention are assayed in a similar manner to that designated as the paper disc method by Itoh, et al [J. of Antibiotics, 24, 855-859 (1971)], for example, as follows: […]

Gram-positive bacteria = test: Antibacterial activity (in words); format: cell-based
mycoplasmas = test: Antimycoplasma activity (in words); format: cell-based
Solubility = format: physicochemical
in vivo = settings: mouse, ip
[16] = Bacillus subtilis, PCI219, 48 h, pH 7, nutrient agar, read-out: MIC
[17] = Micrococcus luteus, PCI1001, 48 h, pH 7, nutrient agar, read-out: MIC
[18] = Candida albicans, 96 h, pH 6.4, potato agar, read-out: MIC
[19] = Trichophyton rubrum, 96 h, pH 6.4, potato agar, read-out: MIC
[20] = Trichophyton, 96 h, pH 6.4, potato agar, read-out: MIC
[21] = Microsporum ferrugineum, 96 h, pH 6.4, potato agar, read-out: MIC

With CC(=O)Oc1cccc2c1C(=O)C1=C(CC(CC(=O)O)OC1C)C2=O (stereo not drawn) [Acetylnanaomycin A, acetylnanaomycin A] the MIC [1] was 1.6 µg/mL (≈ 4.65 µM), the MIC [2, 16] was 3.1 µg/mL (≈ 9 µM) and the MIC (Sarcina lutea PCI 1001; [17]) was 1.6 µg/mL (≈ 4.65 µM). The MIC [3] was 0.8 µg/mL (≈ 2.32 µM), the MIC (Candida albicans; [18]) was 25 µg/mL (≈ 72.6 µM) and the MIC (Trichophyton rubrum; [19]) was < 0.2 µg/mL. The MIC (Trichophyton schoenleini; [20]) was < 0.2 µg/mL, the MIC (Saccharomyces sake; pH 6.4, potato agar) was 12.5 µg/mL (≈ 36.3 µM) and the MIC ([4]; potato agar, read-out: MIC) was 25 µg/mL (≈ 72.6 µM). It also gave an MIC (Microsporum gypseum 704) of 0.4 µg/mL (≈ 1.16 µM), an MIC (Trichophyton asteroides; [20]) of 0.8 µg/mL (≈ 2.32 µM) and an MIC (Trichophyton ferrugineum; [21]) of 0.8 µg/mL (≈ 2.32 µM). For the same compound, the MIC [5] was 1.6 µg/mL (≈ 4.65 µM), the MIC (Trichophyton roseum; [20]) was 0.4 µg/mL (≈ 1.16 µM) and the MIC [6] was 50 µg/mL (≈ 145 µM). For the same compound, the MIC [7] was 6.3 µg/mL (≈ 18.3 µM), the MIC [8] was > 100 µg/mL and the MIC (Bacillus cereus T) was 25 µg/mL (≈ 72.6 µM). The MIC [9] was 6.3 µg/mL (≈ 18.3 µM), the MIC (Proteus mirabilis) was > 100 µg/mL and the MIC [10] was 50 µg/mL (≈ 145 µM). For the same compound, the MIC [11] was > 100 µg/mL, the MIC (Shigella sonnei E 33) was 100 µg/mL (≈ 290 µM) and the MIC [12] was 0.8 µg/mL (≈ 2.32 µM). The MIC [13] was 0.8 µg/mL (≈ 2.32 µM), the MIC [14] was 0.4 µg/mL (≈ 1.16 µM) and the “Inhibition Zone” value [15] was “none”. For the same compound, the “activity against Gram-positive bacteria” value (Gram-positive bacteria) was “a strong activity against Gram-positive bacteria than nanaomycin A”, the “activity against mycoplasma(s)” value (mycoplasmas) was “as strong activity against fungi and mycoplasmas as nanaomycin A” and the Solubility in ether (Solubility) was “Soluble”. For the same compound, the “Solubility in methanol, ethanol, ethylacetate, chloroform and acetone” value (Solubility) was “Soluble”, the “Solubility in n-hexane and petroleum ether” value (Solubility) was “Insoluble” and the Solubility in water (Solubility) was “Insoluble”. It also gave an LD50 (in vivo) of 38.5 mg/kg.
In the case of CC1OC(CC(=O)O)CC2=C1C(=O)c1c(O)cccc1C2=O (stereo not drawn) [Nanaomycin A, nanaomycin A], the MIC [1] is reported as 3.9 µg/mL (≈ 12.9 µM), the MIC [2, 16] is reported as 6.3 µg/mL (≈ 20.8 µM) and the MIC ([2]; nutrient agar) is reported as 7.8 µg/mL (≈ 25.8 µM). For the same compound, the MIC (Sarcina lutea PCI 1001; [17]) was 1.6 µg/mL (≈ 5.29 µM), the MIC (Sarcina lutea PCI 1001; nutrient agar) was 2.0 µg/mL (≈ 6.62 µM) and the MIC [3] was 2 µg/mL (≈ 6.62 µM). The MIC (Candida albicans; [18]) was 50 µg/mL (≈ 165 µM), the MIC (Candida albicans; potato agar) was 31.2 µg/mL (≈ 103 µM) and the MIC (Trichophyton rubrum; [19]) was < 0.2 µg/mL. The MIC (Trichophyton rubrum; potato agar) was < 0.1 µg/mL, the MIC (Trichophyton schoenleini; [20]) was < 0.2 µg/mL and the MIC (Trichophyton schoenleini; potato agar) was 0.2 µg/mL (≈ 0.662 µM). It also gave an MIC (Saccharomyces sake; pH 6.4, potato agar) of 12.5 µg/mL (≈ 41.4 µM), an MIC (Saccharomyces sake; potato agar) of 31.2 µg/mL (≈ 103 µM) and an MIC ([4]; pH 6.4, potato agar) of 62.5 µg/mL (≈ 207 µM). For the same compound, the MIC ([4]; potato agar, read-out: MIC) was 25 µg/mL (≈ 82.7 µM), the MIC (Microsporum gypseum 704) was 0.8 µg/mL (≈ 2.65 µM) and the MIC (Trichophyton asteroides; [20]) was 0.8 µg/mL (≈ 2.65 µM). For the same compound, the MIC (Trichophyton asteroides; potato agar) was 1.6 µg/mL (≈ 5.29 µM), the MIC (Trichophyton ferrugineum; [21]) was 0.8 µg/mL (≈ 2.65 µM) and the MIC (Trichophyton ferrugineum; potato agar) was 1.6 µg/mL (≈ 5.29 µM). The MIC [5] was 1.6 µg/mL (≈ 5.29 µM), the MIC (Trichophyton roseum; [20]) was < 0.2 µg/mL and the MIC (Trichophyton roseum; potato agar) was 0.4 µg/mL (≈ 1.32 µM). The MIC [6] was 100 µg/mL (≈ 331 µM), the MIC [7] was 6.3 µg/mL (≈ 20.8 µM) and the MIC [8] was > 100 µg/mL. For the same compound, the MIC (Bacillus cereus T) was 12.5 µg/mL (≈ 41.4 µM), the MIC [9] was 12.5 µg/mL (≈ 41.4 µM) and the MIC (Proteus mirabilis) was > 100 µg/mL. The MIC [10] was 50 µg/mL (≈ 165 µM), the MIC [11] was > 100 µg/mL and the MIC (Shigella sonnei E 33) was 100 µg/mL (≈ 331 µM). The MIC [12] was 1.6 µg/mL (≈ 5.29 µM), the MIC [13] was 1.6 µg/mL (≈ 5.29 µM) and the MIC [14] was 0.8 µg/mL (≈ 2.65 µM). The “Inhibition Zone” value [15] was “none”, the “activity against Gram-positive bacteria” value (Gram-positive bacteria) was “strong activity” and the “activity against mycoplasma(s)” value (mycoplasmas) was “high activity”. The Solubility in ether (Solubility) was “Easily soluble”, the “Solubility in methanol, ethanol, ethylacetate, chloroform and acetone” value (Solubility) was “Easily soluble” and the “Solubility in n-hexane and petroleum ether” value (Solubility) was “Insoluble”. For the same compound, the Solubility in water (Solubility) was “Insoluble” and the LD50 (in vivo) was 28.2 mg/kg.

Reference: patent US4324728A, “Compound nanaomycin A and derivatives thereof and a process for producing the same” (The Kitasato Institute, priority 1976, dated 1982)
